Format in all cases: cell-based
Assay [1] deals with T1, GLP-1R (Homo sapiens, UniProt P43220). The experiment in a line: HitHunter cAMP assay (GLP-1R). The settings on record: cAMP; for Emax: read-out: (Emax) GLP-1R. The procedure, abridged: (§1)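 Suspension cells (10,000/well) in HBSS with 10 mM HEPES, 625 μM IBMX, 0.2% BSA exposed to 22-point 2-fold agonist series in duplicate for 30 min at room temperature. cAMP measured by antibody immunocompetition with overnight development, luminescence read-out.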
T1 sequence (P43220 24-463): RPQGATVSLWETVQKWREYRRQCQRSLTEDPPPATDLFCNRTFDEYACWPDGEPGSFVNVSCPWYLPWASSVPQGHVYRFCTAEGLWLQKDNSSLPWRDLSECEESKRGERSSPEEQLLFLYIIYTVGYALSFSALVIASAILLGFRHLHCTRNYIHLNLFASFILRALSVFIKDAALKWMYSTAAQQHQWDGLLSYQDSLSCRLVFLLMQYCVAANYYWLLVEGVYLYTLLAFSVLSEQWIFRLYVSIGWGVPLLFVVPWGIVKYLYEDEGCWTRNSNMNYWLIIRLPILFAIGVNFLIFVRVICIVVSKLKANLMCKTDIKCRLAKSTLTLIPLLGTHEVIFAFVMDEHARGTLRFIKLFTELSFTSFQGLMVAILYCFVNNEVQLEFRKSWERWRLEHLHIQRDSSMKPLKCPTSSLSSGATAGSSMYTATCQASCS
A general note: Changes in cAMP serve as a functional read-out for many G protein-coupled receptors.

For assay [2], the target named is T2, GIP-R (Homo sapiens, UniProt P48546).
T2 sequence (P48546 22-466): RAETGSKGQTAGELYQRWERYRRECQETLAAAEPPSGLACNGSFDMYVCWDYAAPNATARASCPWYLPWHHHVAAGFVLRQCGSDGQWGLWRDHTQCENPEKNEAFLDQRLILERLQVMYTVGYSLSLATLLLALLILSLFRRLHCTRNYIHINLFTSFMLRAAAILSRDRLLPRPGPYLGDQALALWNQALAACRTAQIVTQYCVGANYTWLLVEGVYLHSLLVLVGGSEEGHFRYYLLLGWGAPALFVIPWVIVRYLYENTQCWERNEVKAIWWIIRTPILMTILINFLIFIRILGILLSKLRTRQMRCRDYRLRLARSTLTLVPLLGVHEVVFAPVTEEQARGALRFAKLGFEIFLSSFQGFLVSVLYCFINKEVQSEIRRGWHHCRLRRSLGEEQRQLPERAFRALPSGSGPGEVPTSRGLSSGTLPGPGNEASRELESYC
The experiment in a line: HitHunter cAMP assay (GIP-R). As to conditions: cAMP; for Emax: read-out: (Emax) GIP-R. The method in brief:
as §1

Assay [3] concerns the target T1, GLP-1R. As to the kind of experiment: PathHunter β-arrestin assay. The method in brief:
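Cells (5,000/well) plated overnight, then exposed to a 22-point 2-fold agonist dilution series in medium with 0.2% BSA for 90 min at 37 °C, 5% CO2. PathHunter detection reagent added; after 3 h at room temperature in the dark, luminescence read.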

[4] abbreviates: Table 3, read-out: EC50 GLP-1R/nM.
Where [5] appears, read: Table 3A, read-out: EC50 GLP-1R/nM.
The mark [6] stands for this setting: Table 3, read-out: EC50 GIP-R/nM.
Where [7] appears, read: Table 3A, read-out: EC50 GIP-R/nM.
Setting [8] is: PathHunter β-arrestin assay, read-out: β-arrestin activity EC50.

Like-named read-outs stand apart in the source and are kept apart here.

As to `CC[C@H](C)[C@H](NC(=O)[C@H](CO)NC(=O)[C@H](Cc1ccc(O)cc1)NC(=O)[C@H](CC(=O)O)NC(=O)[C@H](CO)NC(=O)[C@@H](NC(=O)[C@H](Cc1ccccc1)NC(=O)[C@@H](NC(=O)CNC(=O)[C@H](CCC(=O)O)NC(=O)C(C)(C)C(=O)NCCN1C(=O)CSC1=O)[C@@H](C)O)[C@@H](C)O)C(=O)N[C@@H](Cc1ccc(O)cc1)C(=O)N[C@@H](CC(C)C)C(=O)N[C@@H](CC(=O)O)C(=O)N[C@@H](CCCCN)C(=O)N[C@@H](CCC(N)=O)C(=O)N[C@@H](C)C(=O)N[C@@H](C)C(=O)NC(C)(C)C(=O)N[C@@H](CCC(=O)O)C(=O)N[C@@H](Cc1ccccc1)C(=O)N[C@H](C(=O)N[C@@H](CC(N)=O)C(=O)N[C@@H](Cc1c[nH]c2ccccc12)C(=O)N[C@@H](CC(C)C)C(=O)N[C@@H](CC(C)C)C(=O)N[C@@H](C)C(=O)NCC(=O)NCC(=O)N1CCC[C@H]1C(=O)N[C@@H](CO)C(=O)N[C@@H](CO)C(=O)NCC(=O)N[C@@H](C)C(=O)N1CCC[C@H]1C(=O)N1CCC[C@H]1C(=O)N1CCC[C@H]1C(=O)N[C@@H](CO)C(=O)N[C@@H](CCCCN)C(N)=O)C(C)C` [Compound 153], the Emax in assay [1] (Table 3) is 107%; in assay [1] (Table 3A) it was 107%; in assay [2] (Table 3), 75 to 85%; in assay [2] (Table 3A), 75 to 85%. Also, the EC50 in assay [1] (setting [4]) is below 0.1 nM; in assay [1] (setting [5]), below 0.1 nM; in assay [2] (setting [6]), 10 to 100 nM; in assay [2] (setting [7]), 10 to 100 nM; in assay [3] (setting [8]), 10 to 1000 nM.
Turning to `CC[C@H](C)[C@H](NC(=O)[C@H](CO)NC(=O)[C@H](Cc1ccc(O)cc1)NC(=O)[C@H](CC(=O)O)NC(=O)[C@H](CO)NC(=O)[C@@H](NC(=O)[C@H](Cc1ccccc1)NC(=O)[C@@H](NC(=O)CNC(=O)[C@H](CCC(=O)O)NC(=O)CCCNC(=O)CCN1C(=O)c2ccccc2C1=O)[C@@H](C)O)[C@@H](C)O)C(=O)N[C@@H](Cc1ccc(O)cc1)C(=O)N[C@@H](CC(C)C)C(=O)N[C@@H](CC(=O)O)C(=O)N[C@@H](CCCCN)C(=O)N[C@@H](CCC(N)=O)C(=O)N[C@@H](C)C(=O)N[C@@H](C)C(=O)NC(C)(C)C(=O)N[C@@H](CCC(=O)O)C(=O)N[C@@H](Cc1ccccc1)C(=O)N[C@H](C(=O)N[C@@H](CC(N)=O)C(=O)N[C@@H](Cc1c[nH]c2ccccc12)C(=O)N[C@@H](CC(C)C)C(=O)N[C@@H](CC(C)C)C(=O)N[C@@H](C)C(=O)NCC(=O)NCC(=O)N1CCC[C@H]1C(=O)N[C@@H](CO)C(=O)N[C@@H](CO)C(=O)NCC(=O)N[C@@H](C)C(=O)N1CCC[C@H]1C(=O)N1CCC[C@H]1C(=O)N1CCC[C@H]1C(=O)N[C@@H](CO)C(=O)N[C@@H](CCCCN)C(N)=O)C(C)C` [Compound 154], the Emax worked out at 80% in assay [1] (Table 3), 80% in assay [1] (Table 3A), 78% in assay [2] (Table 3) and 78% in assay [2] (Table 3A). For the same compound, the EC50 in assay [1] (setting [4]) was 1 to 10 nM; in assay [1] (setting [5]), 1 to 10 nM; in assay [2] (setting [6]), 1 to 10 nM; in assay [2] (setting [7]), 1 to 10 nM; in assay [3] (setting [8]) it was above 1000 nM.
In the case of `CCCCCCCCCCCCCCCC(=O)N[C@@H](CCC(=O)NCCCC[C@H](NC(=O)[C@H](CO)NC(=O)[C@@H]1CCCN1C(=O)[C@@H]1CCCN1C(=O)[C@@H]1CCCN1C(=O)[C@H](C)NC(=O)CNC(=O)[C@H](CO)NC(=O)[C@H](CO)NC(=O)[C@@H]1CCCN1C(=O)CNC(=O)CNC(=O)[C@H](C)NC(=O)[C@H](CC(C)C)NC(=O)[C@H](CC(C)C)NC(=O)[C@H](Cc1c[nH]c2ccccc12)NC(=O)[C@H](CC(N)=O)NC(=O)[C@@H](NC(=O)[C@H](Cc1ccccc1)NC(=O)[C@H](CCC(=O)O)NC(=O)C(C)(C)NC(=O)[C@H](C)NC(=O)[C@H](C)NC(=O)[C@H](CCC(N)=O)NC(=O)[C@H](CCCCN)NC(=O)[C@H](CC(=O)O)NC(=O)[C@H](CC(C)C)NC(=O)[C@H](Cc1ccc(O)cc1)NC(=O)[C@@H](NC(=O)[C@H](CO)NC(=O)[C@H](Cc1ccc(O)cc1)NC(=O)[C@H](CC(=O)O)NC(=O)[C@H](CO)NC(=O)[C@@H](NC(=O)[C@H](Cc1ccccc1)NC(=O)[C@@H](NC(=O)CNC(=O)[C@H](CCC(=O)O)NC(=O)CCCC(=O)NCCN1C(=O)CSC1=O)[C@@H](C)O)[C@@H](C)O)[C@@H](C)CC)C(C)C)C(N)=O)C(=O)O` [Compound 155], the maximal response (Emax) in assay [1] (Table 3) is 102%; in assay [1] (Table 3A), 102%; in assay [2] (Table 3), 80%; in assay [2] (Table 3A) it was 80%. In addition, the EC50 in assay [1] (setting [4]) is 0.1 to 1 nM; in assay [1] (setting [5]), 0.1 to 1 nM; in assay [2] (setting [6]) it was 1 to 10 nM; in assay [2] (setting [7]), 1 to 10 nM; in assay [3] (setting [8]), above 1000 nM.
Consider `CC[C@H](C)[C@H](NC(=O)[C@H](CO)NC(=O)[C@H](Cc1ccc(O)cc1)NC(=O)[C@H](CC(=O)O)NC(=O)[C@H](CO)NC(=O)[C@@H](NC(=O)[C@H](Cc1ccccc1)NC(=O)[C@@H](NC(=O)CNC(=O)[C@H](CCC(=O)O)NC(=O)CSCC(=O)NCCN1C(=O)c2ccc(C)cc2C1=O)[C@@H](C)O)[C@@H](C)O)C(=O)N[C@@H](Cc1ccc(O)cc1)C(=O)N[C@@H](CC(C)C)C(=O)N[C@@H](CC(=O)O)C(=O)N[C@@H](CCCCN)C(=O)N[C@@H](CCC(N)=O)C(=O)N[C@@H](C)C(=O)N[C@@H](C)C(=O)NC(C)(C)C(=O)N[C@@H](CCC(=O)O)C(=O)N[C@@H](Cc1ccccc1)C(=O)N[C@H](C(=O)N[C@@H](CC(N)=O)C(=O)N[C@@H](Cc1c[nH]c2ccccc12)C(=O)N[C@@H](CC(C)C)C(=O)N[C@@H](CC(C)C)C(=O)N[C@@H](C)C(=O)NCC(=O)NCC(=O)N1CCC[C@H]1C(=O)N[C@@H](CO)C(=O)N[C@@H](CO)C(=O)NCC(=O)N[C@@H](C)C(=O)N1CCC[C@H]1C(=O)N1CCC[C@H]1C(=O)N1CCC[C@H]1C(=O)N[C@@H](CO)C(=O)N[C@@H](CCCCN)C(N)=O)C(C)C` [Compound 156], for which the EC50 in assay [1] (EC50 GLP-1R/nM, Table 3) was 1 to 10 nM; in assay [1] (EC50 GLP-1R/nM, Table 3A) it was 1 to 10 nM; in assay [2] (EC50 GIP-R/nM, Table 3), below 0.1 nM; in assay [2] (EC50 GIP-R/nM, Table 3A), below 0.1 nM; in assay [3], above 1000 nM. Moreover, the Emax in assay [1] (Table 3) lay within 95 to 100%; in assay [1] (Table 3A), 95 to 100%; in assay [2] (Table 3) it was 116 to 118%; in assay [2] (Table 3A) it was 116 to 118%.
On to `CC[C@H](C)[C@H](NC(=O)[C@H](CO)NC(=O)[C@H](Cc1ccc(O)cc1)NC(=O)[C@H](CC(=O)O)NC(=O)[C@H](CO)NC(=O)[C@@H](NC(=O)[C@H](Cc1ccccc1)NC(=O)[C@@H](NC(=O)CNC(=O)[C@H](CCC(=O)O)NC(=O)CSCC(=O)NCCN1C(=O)c2ccncc2C1=O)[C@@H](C)O)[C@@H](C)O)C(=O)N[C@@H](Cc1ccc(O)cc1)C(=O)N[C@@H](CC(C)C)C(=O)N[C@@H](CC(=O)O)C(=O)N[C@@H](CCCCN)C(=O)N[C@@H](CCC(N)=O)C(=O)N[C@@H](C)C(=O)N[C@@H](C)C(=O)NC(C)(C)C(=O)N[C@@H](CCC(=O)O)C(=O)N[C@@H](Cc1ccccc1)C(=O)N[C@H](C(=O)N[C@@H](CC(N)=O)C(=O)N[C@@H](Cc1c[nH]c2ccccc12)C(=O)N[C@@H](CC(C)C)C(=O)N[C@@H](CC(C)C)C(=O)N[C@@H](C)C(=O)NCC(=O)NCC(=O)N1CCC[C@H]1C(=O)N[C@@H](CO)C(=O)N[C@@H](CO)C(=O)NCC(=O)N[C@@H](C)C(=O)N1CCC[C@H]1C(=O)N1CCC[C@H]1C(=O)N1CCC[C@H]1C(=O)N[C@@H](CO)C(=O)N[C@@H](CCCCN)C(N)=O)C(C)C` [Compound 157], for which the Emax in assay [1] (Table 3) was 93 to 95%; in assay [1] (Table 3A) it was 93 to 95%; in assay [2] (Table 3) it was 103 to 105%; in assay [2] (Table 3A) it was 103 to 105%. The EC50 in assay [1] (read-out: EC50 GLP-1R/nM, Table 3) is 1 to 100 nM; in assay [1] (read-out: EC50 GLP-1R/nM, Table 3A), 1 to 100 nM; in assay [2] (read-out: EC50 GIP-R/nM, Table 3), 0.1 to 10 nM; in assay [2] (read-out: EC50 GIP-R/nM, Table 3A), 0.1 to 10 nM; in assay [3], above 1000 nM.

One may read the Emax as the greatest response seen or fitted, relative to the assay's reference.

For the origin of these results see patent US20260176320A1, “MODULATORS OF G-PROTEIN COUPLED RECEPTORS” (priority 2018, published 2026).
